Measured values taken from US7709458B2, “Method for inhibiting cancer cell proliferation or increasing cancer cell apoptosis” (priority 2004, dated 2010).
Entries after “also recorded” stand apart in the source; their conditions may differ. Like-named read-outs stand apart in the source and are kept apart here.

What was measured:
[1] = test system: H508 human colon cancer cells; assay: H508 colon cancer cell proliferation assay (sulforhodamine B colorimetric assay); type: cell-based; conditions: for effect on EGF-induced H508 cell proliferation: EGF 1 ng/ml; for effect on acetylcholine-induced H508 cell proliferation: acetylcholine 300 μM
Protocol: H508 colon cancer cell culture. H508 human colon cancer cells were grown in RPMI 1640 (ATCC) supplemented with 10% fetal bovine serum (FBS) (Biowhittaker). Adherent cultures were passaged weekly at subconfluence after trypsinization. Cultures were maintained in incubators at 37° C. in an atmosphere of 5% CO2 and 95% air.
H508 colon cancer cell proliferation assay. Cell proliferation was determined using the sulforhodamine B (SRB) colorimetric assay (Skehan et al., 1990). Cells were seeded in 96-well plates (Corning Glass Works, Corning, N.Y.) at approx. 10% confluence and allowed to attach for 24 h. Growth medium was removed and fresh medium without FBS and containing the indicated concentration of test agent was added. Cells were incubated for the indicated periods of time at 37° C. in an atmosphere of 5% CO2 and 95% air. After incubation, cells were treated for 30 min with 0.4% (w/v) SRB dissolved in 1% acetic acid. Protein-bound dye was extracted with unbuffered 10 mM Tris base. Absorbance was measured at 560 nm using a computer-interfaced, 96-well microtiter plate reader.
c-di-GMP inhibits proliferation of human colon cancer cells. The potential therapeutic actions of c-di-GMP were examined on basal and growth factor-stimulated proliferation of cells derived from a moderately differentiated human cecal adenocarcinoma (H508 cells) that express M3 muscarinic (M3R) and epidermal growth factor (EGF) receptors (EGFR) (Cheng et al., 2003). Cell proliferation was determined using the validated sulforhodamine B (SRB) calorimetric assay (Skehan et al., 1990). H508 cells were incubated in the absence or presence of a growth stimulant, acetylcholine (300 μM) and EGF (1 ng/ml) alone or with increasing concentrations of c-di-GMP (0.5-50 μM). After a 5-day incubation, the highest concentration of c-di-GMP tested, 50 μM, reduced basal H508 cell proliferation by approx. 15% (FIG. 1; p<0.05 compared to control, Student's unpaired t-test).

[2] = test system: NRK 52E cells (normal rat kidney cells); assay: Cytotoxicity on normal rat kidney cells using the Alamar blue assay; type: cell-based; conditions: for decrease in fluorescence: 200 μM
Protocol: Toxicity assays in normal rat kidney cells (NRK). The toxicity of c-di-GMP in independent cell lines was tested. In these studies, acute (24 and 72 h) toxicity in NRK 52 E cells (normal rat kidney cells) was determined using the Alamar blue assay. NRK 52E cells are a rat renal tubule epithelial cell line originally cloned from a mixed culture termed NRK. The Alamar blue assay is designed to measure the proliferation of cell lines and is used routinely to determine the cytotoxicity of various chemicals. […] It is minimally toxic to most living cells.
Chemical toxicity on normal rat kidney cells. To assess chemical toxicity, the Alamar blue assay was performed using NRK 52E cells plated at near confluence in 96-well tissue culture plates (Costar). Cells were maintained in DMEM containing 10% FBS and penicillin/streptomycin in tissue culture flasks. Cells were harvested by trypsinization, resuspended in the basal medium and counted. NRK 52E cells were plated at a density of 4-5×10^4 cells/well. After a 24-h attachment/acclimation interval, the tissue culture media was aspirated and replaced with the appropriate test solution. For most experiments, 8 wells were used for each solution, i.e., each solution was tested in one column of 8 replicate wells. […] Plates were incubated for 24 or 72 h and observed under phase contrast microscopy. All solutions were aspirated and replaced with fresh DMEM containing Alamar blue dye (10% vol/vol). Plates were incubated at 37° C. for an additional 6 h after which fluorescence was measured using a fluorimetric plate reader (Cytofluor). Data were collected as raw fluorescence units and expressed as a percentage of the solvent control using average values from all 8 wells for each group (mean fluorescence test/mean fluorescence control×100=% control fluorescence).
(§1) Cell proliferation assay on normal rat kidney cells. To assess potential effects on cell proliferation, the Alamar blue assay was performed using NRK 52E cells. Cells were harvested as described for the toxicity assay and seeded in 96-well tissue culture plates at a density of about 3×10^3 cells/well and evaluated over a 96-h time frame. Cells were allowed to attach for 3 h in the basal, serum-containing DMEM medium. After attachment, the media was aspirated and replaced with test solutions according to the design described for the toxicity assay with the addition of the Alamar blue dye to each solution (as 10% vol/vol). The reduction of Alamar blue dye was measured in a fluorimetric plate reader (Cytofluor) at 24, 48, 72 and 96 h. Morphological observation was also performed to ensure that the cell patterns matched the fluorescence data. Data were collected as raw fluorescence units and expressed as a percentage of the solvent control using the average values from all 8 wells used for each group (mean fluorescence test/mean fluorescence control×100=% control fluorescence) at each time period. As a further check to ensure that Alamar blue was not itself exerting some growth or inhibitory effects the experiments were also performed by plating cells at the lower density with exposures for 72 h without Alamar blue in the media. After the 72-h growth period, the media was aspirated and fresh DMEM containing Alamar blue (10% vol/vol) was added to all wells. Cells were further incubated in the Alamar blue solution for 6 h and fluorescence measured and data collected and expressed as described.

[3] = test system: NRK 52E cells (normal rat kidney cells); assay: Cell proliferation assay on normal rat kidney cells (Alamar blue, 24-96 h); type: cell-based
Protocol: as §1

[4] = test system: p44/42 (ERK1/2) mitogen-activated protein kinase (MAPK) cascade; assay: Acetylcholine- and EGF-induced activation of p44/42 MAPK signaling in H508 cells; type: cell-based, human
[5] = test system: H508 human colon cancer cells; assay: H508 colon cancer cell proliferation assay (sulforhodamine B colorimetric assay); type: cell-based; conditions: 50 μM
[6] = test system: CD1 mice; assay: Lethality in CD1 mice; conditions: 50 μl of 200 μM c-di-GMP, after 24 h
[7] = increasing concentrations 0.5-50 μM, 5 days

## Nc1nc(=O)c2ncn([C@@H]3OC4COP(=O)(O)O[C@H]5[C@@H](O)[C@H](n6cnc7c(=O)nc(N)[nH]c76)O[C@@H]5COP(=O)(O)OC4C3O)c2[nH]1 (stereo partly drawn) [c-di-GMP, Bis(3′-->5′)-cyclic diguanylic acid]
[1]; 50 μM, 5 days incubation
  effect on basal H508 cell proliferation: inhibited
[1]; 50 μM, 5 days
  effect on EGF-induced H508 cell proliferation: reduced to basal levels
  effect on acetylcholine-induced H508 cell proliferation: reduced to basal levels
[1]; 50 μM, basal (no stimulant), 5-day incubation
  reduction of basal H508 cell proliferation: approx. 15%
[1]; [7]
  effect on EGF-induced H508 cell proliferation: inhibit; also recorded: progressively inhibited
  effect on acetylcholine-induced H508 cell proliferation: inhibit; also recorded: progressively inhibited
[1]; increasing concentrations, 5 days (FIG. 1)
  effect on basal H508 cell proliferation: inhibit
[1]; lower concentrations (below 50 μM), 5 days
  effect on basal H508 cell proliferation: did not significantly alter basal proliferation; also recorded: did not alter basal cell proliferation
[2]; 72 h confluent cells
  decrease in fluorescence: 36%
[2]; 72 h non-confluent cells
  decrease in fluorescence: 14%
[2]; 400 μM, 24 h
  toxicity on normal rat kidney cells: nontoxic
[2]; 20, 40, 100 μM
  fluorescence relative to the solvent control: no decease in fluorescence relative to the solvent control
[2]; 200 and 400 μM, 72 h exposure
  toxicity on NRK cells: toxicity was observed
[2]; 24 h exposure
  cytotoxicity on NRK cells: little evidence of cytotoxicity
[2]; all relevant biological concentrations / biologically relevant doses
  cytotoxicity on normal rat kidney cells: no cytotoxicity
[2]; c-di-GMP 20 μM, 24-h confluent
  Fluorescence (% control): 98.5 % control
[2]; c-di-GMP 20 μM, 72-h confluent
  Fluorescence (% control): 98.0 % control
[2]; c-di-GMP 20 μM, 72-h non-confluent
  Fluorescence (% control): 97.0 % control
[2]; c-di-GMP 40 μM, 24-h confluent
  Fluorescence (% control): 99.4 % control
[2]; c-di-GMP 40 μM, 72-h confluent
  Fluorescence (% control): 98.0 % control
[2]; c-di-GMP 40 μM, 72-h non-confluent
  Fluorescence (% control): 99.0 % control
[2]; c-di-GMP 100 μM, 24-h confluent
  Fluorescence (% control): 99.7 % control
[2]; c-di-GMP 100 μM, 72-h confluent
  Fluorescence (% control): 92.2 % control
[2]; c-di-GMP 200 μM, 24-h confluent
  Fluorescence (% control): 101.6 % control
[2]; c-di-GMP 200 μM, 72-h confluent
  Fluorescence (% control): 64.2 % control
[2]; c-di-GMP 200 μM, 72-h non-confluent
  Fluorescence (% control): 86.0 % control
[2]; c-di-GMP 400 μM, 24-h confluent
  Fluorescence (% control): 96.2 % control
[2]; c-di-GMP 400 μM, 72-h confluent
  Fluorescence (% control): 40.0 % control
[2]; c-di-GMP 400 μM, 72-h non-confluent
  Fluorescence (% control): 3.0 % control
[3]; 100 μM, 48 h
  fluorescence (% of control), NRK cell proliferation: 75 % of control fluorescence
[3]; 100 μM, 72 h
  fluorescence (% of control), NRK cell proliferation: 87 % of control fluorescence
[3]; 100 μM, 96 h
  fluorescence (% of control), NRK cell proliferation: 94 % control fluorescence
[3]; 200 μM, 96 h
  fluorescence (% of control), NRK cell proliferation: 85 % of control
[3]; 200 μM, up to 96 h
  NRK cell proliferation: retardation of cell proliferation that was much less pronounced than the 400-μM dose
[3]; 400 μM, 96-h period of exposure
  NRK cell proliferation: little growth over the 96-h period of exposure
[3]; 5, 25 or 50 μM (data not shown)
  NRK cell proliferation: not altered
[4]
  effect on EGF-induced activation (phosphorylation) of p44/42 MAPK: did not alter
  effect on acetylcholine-induced activation (phosphorylation) of p44/42 MAPK: did not alter
[4]; listed as cyclic-di-GMP
  effect on EGF-induced activation (phosphorylation) of p44/42 MAPK: do not inhibit
  effect on acetylcholine-induced activation (phosphorylation) of p44/42 MAPK: do not inhibit
[5]
  apoptosis of H508 cells by microscopic examination: not observed by microscopic examination
[6]
  lethality: non-lethal
